Laboratory results: patent US20080003250A1, “NOVEL THERAPY FOR HERPESVIRUS INFECTION” (priority 2006, published 2008)

Experiments:
[1] = cited from earlier work
[2] = test system: HSV-1 KOS infected Vero cells; experiment: Efficacy of implants at preventing cytopathic effect in cell culture; type: cell-based; settings: 48 hours post-infection; 0.22 ug ACV or two implants per well
Description: A six-well culture plate was prepared with 4 mL of Dulbecco's modified Eagles' medium (DMEM) (Invitrogen) supplemented with 10% fetal bovine serum and 1% penicillin-streptomycin-Amphotericin B solution (Mediatech) per well. […] The plate was incubated for two days at 37° C. and 5% CO2. Vero cells (ATCC CCL-81) were then added to each well and allowed to grow for another 48 hours until almost confluent. HSV-1 KOS (9.0×10^3 pfu) (ATCC VR-1493) was added to one of each of the paired wells, and 24 and 48 hours later the cells were photographed with a Nikon D1 2.6 megapixel digital camera, set in black and white mode, attached to an Olympus CK-40 microscope. The resulting digital images were compiled for presentation with Adobe Photoshop.
All mock-infected Vero cells remained healthy 48 hours after infection (FIGS. 8A-8C).

[3] = test system: HSV-1; settings: cited from earlier work
[4] = target: host eukaryotic DNA polymerase; settings: cited from earlier work

## CC(C)[C@H](N)C(=O)OCCOCn1cnc2c(=O)[nH]c(N)nc21 [valacyclovir]
[1]
  bioavailability, of the oral dose consumed: about 50%

## Nc1nc2c(ncn2COCCO)c(=O)[nH]1 [ACV, acyclovir]
[2]
  cytopathic effect (CPE) in HSV-1-infected Vero cells: Moderate CPE (cell rounding)
  plaque formation in HSV-1-infected Vero cells: no plaque formation
[3]
  50% inhibitory dose against HSV-1: about 0.03 ug/mL

## Nc1nc2c(ncn2COCCOP(=O)(O)OP(=O)(O)OP(=O)(O)O)c(=O)[nH]1 [ACV-triphosphate, ACV triphosphate]
[4]
  Ki: 960 ± 80 nM
